# Data from patent US5475022A, “Phenyl or heteroaryl and tetrahydronaphthyl substituted diene compounds having retinoid like biological activity” (Allergan, Inc., priority 1993, dated 1995).
# Test system: ornithine decarboxylase (ODC)
# Experiment: inhibition of TPA induction of ornithine decarboxylase (ODC)
# Type: cell-based
# Settings: TPA-induced ODC activity, read-out: % ODC Inhibition at 1.0 μM concentration
# Excerpt: The retinoid-like activity of these compounds is confirmed through the classic measure of retinoic acid activity involving the effects of retinoic acid on ornithine decarboxylase. The original work on the correlation between retinoic acid and decrease in cell proliferation was done by Verma & Boutwell, Cancer Research, 1977, 37,2196-2201. That reference discloses that ornithine decarboxylase (ODC) activity increased precedent to polyamine biosynthesis. It has been established elsewhere that increases in polyamine synthesis can be correlated or associated with cellular proliferation. Thus, if ODC activity could be inhibited, cell hyperproliferation could be modulated. Although all causes for ODC activity increases are unknown, it is known that 12-0-tetradecanoylphorbol-13-acetate (TPA) induces ODC activity.
row,SMILES,inhibition at 1 µM [%]
1,"COC(=O)c1ccoc1/C=C/C=C(\C)c1cc2c(cc1C)C(C)(C)CCC2(C)C [Compound 1, Methyl 2-[4-methyl-4-(3,5,5,8,8-pentamethyl-5,6,7,8-tetrahydronaphthalene)-2-yl-1E,3E-butadien-1-yl]-furan-3-carboxylate]",37
2,"COC(=O)c1ccoc1/C=C/C=C(/C)c1cc2c(cc1C)C(C)(C)CCC2(C)C [Compound 2, Methyl 2-[4-methyl-4-(3,5,5,8,8-pentamethyl-5,6,7,8-tetrahydronaphthalene)-2-yl-1E,3Z-butadien-1-yl]-furan-3-carboxylate]",36
3,"C/C(=C\C=C\c1ccccc1C(=O)O)c1cc2c(cc1C)C(C)(C)CCC2(C)C [Compound 7, 2-[4-Methyl-4-(3,5,5,8,8-pentamethyl-5,6,7,8-tetrahydronaphthalene)-2-yl-1E,3E-butadien-1-yl]benzoic acid]",79
4,"C/C(=C/C=C/c1ccccc1C(=O)O)c1cc2c(cc1C)C(C)(C)CCC2(C)C [Compound 8, 2-[4-Methyl4-(3,5,5,8,8-pentamethyl-5,6,7,8-tetrahydronaphthalene)-2-yl-1E,3Z-butadien-1-yl]benzoic acid]",75
5,"C/C(=C/C=C/c1occc1C(=O)O)c1cc2c(cc1C)C(C)(C)CCC2(C)C [Compound 9, 2-[4-Methyl-4-(3,5,5,8,8-pentamethyl-5,6,7,8-tetrahydronaphthalene)-2-yl-1E,3Z-butadien-1-yl]-furan-3-carboxylic acid]",56
6,"COC(=O)c1ccoc1/C=C/C=C(\C)c1ccc2c(c1)C(C)(C)CCC2(C)C [Compound 11, Methyl 2-[4-methyl-4-(5,5,8,8,-tetramethyl5,6,7,8,-tetrahydronaphthalen)-2-yl-1E,3E-butadien-1-yl] furan 3-carboxylate]",26
7,"COC(=O)c1ccoc1/C=C/C=C(/C)c1ccc2c(c1)C(C)(C)CCC2(C)C [Compound 12, Methyl 2-[4-methyl-4-(5,5,8,8, -tetramethyl-5,6,7,8, -tetrahydronaphthalen)2-yl-1E, 3Z-butadien-1-yl] furan 3-carboxylate]",42
8,"C/C(=C\C=C\c1occc1C(=O)O)c1ccc2c(c1)C(C)(C)CCC2(C)C [Compound 13, 2-[4-Methyl-4-(5,5,8,8,-tetramethyl-5,6,7,8,-tetrahydronaphthalen)-2-yl-1E,3E-butadien-1-yl] furan 3-carboxylic acid]",60
9,"C/C(=C/C=C/c1occc1C(=O)O)c1ccc2c(c1)C(C)(C)CCC2(C)C [Compound 14, 2-[4-Methyl-4-(5,5,8,8,-tetramethyl-5,6,7,8-tetrahydronaphthalen)-2-yl-1E,3Z-butadien-1-yl] furan 3-carboxylic acid]",72
10,"C/C(=C\C=C\c1ccsc1C(=O)O)c1cc2c(cc1C)C(C)(C)CCC2(C)C [Compound 17, 3-[4-Methyl-4-(3,5,5,8,8,-pentamethyl-5,6,7,8,-tetrahydronaphthalen)-2-yl-1E,3 E-butadien-1-yl]thiophene 2-carboxylic acid]",79
11,"CCOC(=O)c1occc1/C=C\C=C(/C)c1cc2c(cc1C)C(C)(C)CCC2(C)C [Compound 19, Ethyl 3-[4-methyl-4-(3,5,5,8,8-pentamethyl-5,6,7,8-tetrahydronaphthalene)-2-yl-1Z, 3E-butadiene-1-yl]-2-furanoate]",73
12,"COC(=O)c1ccccc1/C=C/C=C(\C)c1cc2c(cc1C)C(C)(C)CCC2(C)C [Compound 24, Methyl 2-[4-methyl-4-(3,5,5,8,8-pentametyl-5,6,7,8-tetrahydronaphthalene)-2-yl-1E,3E-butadien-1-yl]benzoate]",88

# Same assay, conditions: value determined by linear regression of data collected at 30, 100, 300 nanomolar concentrations, read-out: % ODC Inhibition at 1.0 μM concentration
row,SMILES,inhibition at 1 µM [%]
1,"COC(=O)c1ccccc1/C=C/C=C(\C)c1ccc2c(c1)C(C)(C)CCC2(C)C [Compound 6, Methyl 2-[4-methyl-4-(5,5,8,8-tetramethyl-5,6,7,8-tetrahydronaphthalene)-2-yl-1E,3E-butadien-1-yl]benzoate]",100

# Test system: ornithine decarboxylase (ODC)
# Experiment: not given
# Settings: literature statement; cited from earlier work
row,SMILES,inhibition of induction of ODC activity by TPA
1,CC1=C(/C=C/C(C)=C/C=C/C(C)=C/C(=O)O)C(C)(C)CCC1 [Retinoic acid],inhibits this induction of ODC activity by TPA
